Laboratory results as given in US11999727B2 (Tango Therapeutics, Inc., priority 2020, dated 2024).

Legend:
[1] = target: T1, PRMT5 (Homo sapiens, UniProt O14744); assay: PRMT5 biochemical IC50 assay with SAM as cofactor; settings: PRMT5, SAM as cofactor; read-out: SAM IC50
T1 construct: purchased Viva (custom protein)

[2] = target: T1, PRMT5; assay: PRMT5 biochemical IC50 assay with no cofactor; settings: PRMT5, no cofactor
Excerpt: Table 1 indicates IC50 values (μM) against PRMT5 for exemplary compounds in the presence of SAM as cofactor, with no cofactor, and with MTA as cofactor, respectively (columns 4-6). […] Ki values can be calculated from the IC50 values as described in the Examples section. As detailed in the Examples section, for the assay performed in the presence of SAM, IC50=Ki×1.5 (Ki=IC50/1.5).

[3] = target: T1, PRMT5; assay: PRMT5 biochemical IC50 assay with MTA as cofactor; settings: PRMT5, MTA as cofactor; read-out: MTA IC50
[4] = system: HAP1 MTAP-intact cell line; assay: SDMA in-cell western assay, HAP1 MTAP-intact; assay type: cell-based; settings: Homo sapiens, HAP1, SDMA in-cell western, HAP1 MTAP-intact; read-out: MTAP HAP1 intact IC50
Procedure, shortened: (§1)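 Readout: in-cell western detection of SDMA. Cells: HAP1 expressing endogenous MTAP and an MTAP-null HAP1 counterpart. Output: IC50.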

[5] = system: HAP1 MTAP-deleted cell line; assay: SDMA in-cell western assay, HAP1 MTAP-deleted; assay type: cell-based; settings: for IC50: Homo sapiens, HAP1, SDMA in-cell western, HAP1 MTAP-deleted; for MTAP intact/deleted ratio: SDMA in-cell western
Procedure, shortened: as §1

[6] = system: HAP1 MTAP-deleted cell line; assay: Viability assay, MTAP-deleted cell line; assay type: cell-based; settings: Homo sapiens, read-out: HAP1 MTAP deleted viability
Excerpt: Table 1 additionally indicates IC50 values in a viability assay for the MTAP-deleted cell line (column 10), indicating the effect of treatment with compound on cell survival.

[7] = read-out: HAP1 MTAP deleted IC50
[8] = IC50 ratio HAP1 MTAP-intact vs HAP1 MTAP-deleted
[9] = HAP1, viability assay, MTAP-deleted cell line
[10] = read-out: No Cofactor/ rel IC50
[11] = read-out: HAP 1 MTAP deleted IC50
[12] = IC50 ratio HAP1 MTAP-intact / HAP1 MTAP-deleted
[13] = HAP1, viability, HAP1 MTAP-deleted cell line

T1 sequence (O14744 whole entry): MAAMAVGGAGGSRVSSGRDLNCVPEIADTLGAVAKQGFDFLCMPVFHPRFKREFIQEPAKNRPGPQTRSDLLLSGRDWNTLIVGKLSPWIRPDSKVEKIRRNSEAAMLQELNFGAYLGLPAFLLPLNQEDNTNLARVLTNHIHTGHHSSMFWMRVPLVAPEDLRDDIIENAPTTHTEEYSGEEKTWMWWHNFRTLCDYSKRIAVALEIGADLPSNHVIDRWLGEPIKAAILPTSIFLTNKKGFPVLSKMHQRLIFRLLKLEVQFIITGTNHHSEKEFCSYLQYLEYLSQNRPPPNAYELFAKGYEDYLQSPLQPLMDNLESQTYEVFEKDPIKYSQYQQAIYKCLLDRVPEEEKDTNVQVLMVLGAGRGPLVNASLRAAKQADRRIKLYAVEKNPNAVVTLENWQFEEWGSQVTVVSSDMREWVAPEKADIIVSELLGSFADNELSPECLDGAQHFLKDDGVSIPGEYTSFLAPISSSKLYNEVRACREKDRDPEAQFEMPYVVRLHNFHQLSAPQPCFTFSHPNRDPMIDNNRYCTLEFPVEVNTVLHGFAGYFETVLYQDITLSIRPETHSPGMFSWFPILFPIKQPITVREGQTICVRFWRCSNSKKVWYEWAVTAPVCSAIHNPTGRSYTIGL
T1 sequence (Q9BQA1 whole entry partner): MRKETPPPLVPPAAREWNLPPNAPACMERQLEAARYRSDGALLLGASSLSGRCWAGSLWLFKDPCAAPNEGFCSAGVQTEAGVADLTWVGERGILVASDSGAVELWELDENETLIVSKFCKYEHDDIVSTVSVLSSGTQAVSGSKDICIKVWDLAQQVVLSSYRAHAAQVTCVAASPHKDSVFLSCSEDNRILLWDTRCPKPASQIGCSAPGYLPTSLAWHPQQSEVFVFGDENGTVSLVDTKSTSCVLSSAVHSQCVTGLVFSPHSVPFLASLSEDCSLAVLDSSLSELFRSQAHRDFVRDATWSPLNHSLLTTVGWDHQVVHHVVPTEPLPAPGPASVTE

Structure (SMILES) | IC50 [1] | IC50 ([2]; read-out: No Cofactor/rel IC50) | IC50 [3] | IC50 [4] | IC50 [5, 7] | MTAP intact/deleted ratio [5, 8] | IC50 [6, 9] | IC50 [2, 10] | IC50 [5, 11] | MTAP intact/deleted ratio [5, 12] | IC50 [6, 13]
Cc1cc(NC(=O)C(=O)N2C[C@H](C)CC[C@H]2c2ccc3scc(CCN(C)C)c3c2)cnc1N (racemic) [Compound 1142, N-(6-amino-5-methyl-3-pyridyl)-2-[(2S,5R)-2-[3-[2-(dimethylamino)ethyl]benzothiophen-5-yl]-5-methyl-1-piperidyl]-2-oxo-acetamide] | 50 to 500 nM | 50 to 500 nM | < 50 nM | < 100 nM | < 100 nM | B (an IC50 ratio greater than or equal to 3 fold but lower than 10 fold) | < 1000 nM | – | – | – | –
Cc1cc(NC(=O)C(=O)N2C[C@H](C)CC[C@H]2c2cccc(C3CCN(C)CC3)c2)cnc1N (racemic) [Compound 1149, N-(6-amino-5-methylpyridin-3-yl)-2-(5-methyl-2-(3-(1-methylpiperidin-4-yl)phenyl)piperidin-1-yl)-2-oxoacetamide] | 50 to 500 nM | 50 to 500 nM | < 50 nM | 100 to 1000 nM | < 100 nM | A (an IC50 ratio greater than or equal to 10 fold) | < 1000 nM | – | – | – | –
CCc1cc(NC(=O)C(=O)N2C[C@@H](C)CC[C@@H]2c2ccc(N3CCN(C(C)C)CC3)c(C)c2)cnc1N (racemic) [Compound 1163, N-(6-Amino-5-ethyl-3-pyridyl)-2-oxo-2-[rac-(2R,5S)-2-[4-(4-isopropylpiperazin-1-yl)-3-methyl-phenyl]-5-methyl-1-piperidyl]acetamide] | < 50 nM | < 50 nM | < 50 nM | 100 to 1000 nM | < 100 nM | A (an IC50 ratio greater than or equal to 10 fold) | < 1000 nM | – | – | – | –
CCc1cc(NC(=O)C(=O)N2C[C@@H](C)CC[C@@H]2c2ccc(N3C[C@H]4CCN(C)C[C@H]4C3)cc2)cnc1N (racemic) [Compound 1167, N-(6-amino-5-ethyl-3-pyridyl)-2-oxo-2-[rac-(2R,5S)-5-methyl-2-[4-[rac-(3aS,7aS)-5-methyl-3,3a,4,6,7,7a-hexahydro-1H-pyrrolo[3,4-c]pyridin-2-yl]phenyl]-1-piperidyl]acetamide] | < 50 nM | < 50 nM | < 50 nM | 100 to 1000 nM | < 100 nM | A (an IC50 ratio greater than or equal to 10 fold) | < 1000 nM | – | – | – | –
COc1ncc(NC(=O)C(=O)N2C[C@@H](C)CC[C@@H]2c2ccc3sc([C@H]4CCN(C)C[C@@H]4C)nc3c2)cc1C(N)=O (racemic) [Compound 1168, 2-methoxy-5-[[2-oxo-2-[rac-(2R,5S)-5-methyl-2-[2-[rac-(3R,4S)-1,3-dimethyl-4-piperidyl]-1,3-benzothiazol-5-yl]-1-piperidyl]acetyl]amino]pyridine-3-carboxamide] | < 50 nM | < 50 nM | < 50 nM | < 100 nM | < 100 nM | A (an IC50 ratio greater than or equal to 10 fold) | < 1000 nM | – | – | – | –
CCc1cc(NC(=O)C(=O)N2C[C@@H](C)[C@H](OC)C[C@@H]2c2cccc(OCCN(C)C)c2)cnc1N (racemic) [Compound 1172, N-(6-amino-5-ethyl-3-pyridyl)-2-oxo-2-[rac-(2R,4R,5R)-2-[3-[2-(dimethylamino)ethoxy]phenyl]-4-methoxy-5-methyl-1-piperidyl]acetamide] | 50 to 500 nM | 50 to 500 nM | < 50 nM | 100 to 1000 nM | < 100 nM | A (an IC50 ratio greater than or equal to 10 fold) | < 1000 nM | – | – | – | –
CCc1nc2cc([C@@H]3CC[C@@H](C)CN3C(=O)C(=O)Nc3cnc(N)c(C)c3)ccc2s1 (racemic) [Compound 1184, N-(6-amino-5-methylpyridin-3-yl)-2-(2-(2-ethylbenzo[d]thiazol-5-yl)-5-methylpiperidin-1-yl)-2-oxoacetamide] | 50 to 500 nM | 50 to 500 nM | 50 to 500 nM | 100 to 1000 nM | < 100 nM | A (an IC50 ratio greater than or equal to 10 fold) | < 1000 nM | – | – | – | –
COc1ncc(NC(=O)C(=O)N2C[C@@H](C)CC[C@@H]2c2ccc3sc([C@H]4CCN(C)C[C@H]4C)nc3c2)cc1C(N)=O (racemic) [Compound 1185, 2-methoxy-5-[[2-oxo-2-[rac-(2R,5S)-5-methyl-2-[2-[rac-(3S,4S)-1,3-dimethyl-4-piperidyl]-1,3-benzothiazol-5-yl]-1-piperidyl]acetyl]amino]pyridine-3-carboxamide] | < 50 nM | < 50 nM | < 50 nM | < 100 nM | < 100 nM | A (an IC50 ratio greater than or equal to 10 fold) | < 1000 nM | – | – | – | –
CCc1cc(NC(=O)C(=O)N2C[C@@H](C)CC[C@@H]2c2ccc(N3CCN(C)CC3)cc2)cnc1N (racemic) [Compound 1209, rac-N-(6-Amino-5-ethyl-3-pyridyl)-2-[(2S,5R)-5-methyl-2-[4-(4-methylpiperazin-1-yl)phenyl]-1-piperidyl]-2-oxo-acetamide] | 50 to 500 nM | 50 to 500 nM | < 50 nM | 100 to 1000 nM | < 100 nM | A (an IC50 ratio greater than or equal to 10 fold) | < 1000 nM | – | – | – | –
Cc1cc(NC(=O)C(=O)N2C[C@H](C)CC[C@H]2c2cccc(N3CCN(C)CC3)c2)cnc1N (racemic) [Compound 1223, N-(6-amino-5-methylpyridin-3-yl)-2-(5-methyl-2-(3-(4-methylpiperazin-1-yl)phenyl)piperidin-1-yl)-2-oxoacetamide] | 50 to 500 nM | 50 to 500 nM | < 50 nM | 100 to 1000 nM | < 100 nM | A (an IC50 ratio greater than or equal to 10 fold) | < 1000 nM | – | – | – | –
CCc1cc(NC(=O)C(=O)N2CC(C)CCC2c2ccc3sc(C4CCN(C)CC4C)nc3c2)cnc1N (racemic) [Compound 1227, N-(6-amino-5-ethyl-3-pyridyl)-2-oxo-2-[rac-(2R,5S)-5-methyl-2-[2-[rac-(3S,4R)-1,3-dimethyl-4-piperidyl]-1,3-benzothiazol-5-yl]-1-piperidyl]acetamide] | < 50 nM | < 50 nM | < 50 nM | < 100 nM | < 100 nM | A (an IC50 ratio greater than or equal to 10 fold) | < 1000 nM | – | – | – | –
Cc1cc(NC(=O)C(=O)N2C[C@H](C)CC[C@H]2c2ccc(CCN(C)C)cc2)cnc1N (racemic) [Compound 1233, N-(6-amino-5-methyl-3-pyridyl)-2-[2-[4-[2-(dimethylamino)ethyl]phenyl]-5-methyl-1-piperidyl]-2-oxo-acetamide] | 50 to 500 nM | 50 to 500 nM | < 50 nM | 100 to 1000 nM | < 100 nM | B (an IC50 ratio greater than or equal to 3 fold but lower than 10 fold) | < 1000 nM | – | – | – | –
CCc1cc(NC(=O)C(=O)N2C[C@@H](C)CC[C@@H]2c2ccc3nn(C4CN(C)C4)cc3c2)cnc1N (racemic) [Compound 1239, N-(6-Amino-5-ethyl-3-pyridyl)-2-oxo-2-[rac-(2R,5S)-5-methyl-2-[2-(1-methylazetidin-3-yl)indazol-5-yl]-1-piperidyl]acetamide] | 50 to 500 nM | – | < 50 nM | 100 to 1000 nM | – | – | – | < 50 nM | < 100 nM | A (an IC50 ratio greater than or equal to 10 fold) | < 1000 nM
COc1ncc(NC(=O)C(=O)N2C[C@@H](C)CC[C@@H]2c2ccc3sc([C@H]4CCN(C)C4)nc3c2)cc1C(N)=O (racemic) [Compound 1260, 2-methoxy-5-[[2-oxo-2-[rac-(2R,5S)-5-methyl-2-[2-[rac-(3S)-1-methylpyrrolidin-3-yl]-1,3-benzothiazol-5-yl]-1-piperidyl]acetyl]amino]pyridine-3-carboxamide] | < 50 nM | – | < 50 nM | < 100 nM | – | – | – | < 50 nM | < 100 nM | A (an IC50 ratio greater than or equal to 10 fold) | < 1000 nM
CCc1cc(NC(=O)C(=O)N2C[C@@H](C)CC[C@@H]2c2ccc3c(c2)C(=O)N(C2CCN(C)CC2)C3)cnc1N (racemic) [Compound 1272, N-(6-amino-5-ethyl-3-pyridyl)-2-oxo-2-[rac-(2R,5S)-5-methyl-2-[2-(1-methyl-4-piperidyl)-3-oxo-isoindolin-5-yl]-1-piperidyl]acetamide] | 50 to 500 nM | – | < 50 nM | 100 to 1000 nM | – | – | – | < 50 nM | < 100 nM | A (an IC50 ratio greater than or equal to 10 fold) | < 1000 nM
